The test system of series [1] is Tetranychus urticae. As to the kind of experiment: Tetranychus urticae - spray test, OP-resistant (bean leaf discs, 6 days). It counts as in vivo. The following applies: 500 g/ha, after 6 days; for pest or weed control at 500 g/ha: Tetranychus urticae, foliar, 144 h, read-out: efficacy (spider mites killed). The protocol:
5. Tetranychus urticae—Spray Test, OP-Resistant
Solvent: 78.0 parts by weight of acetone
• 1.5 parts by weight of dimethylformamide Emulsifier: alkylaryl polyglycol ether
To produce a suitable preparation of active compound, 1 part by weight of active compound is dissolved using the stated parts by weight of solvent and made up with water containing an emulsifier concentration of 1000 ppm until the desired concentration is attained. To produce further test concentrations, the preparation is diluted with emulsifier-containing water.
Discs of bean leaves (Phaseolus vulgaris) infested with all stages of the greenhouse red spider mite (Tetranychus urticae) are sprayed with an active compound preparation of the desired concentration.
After 6 days, the efficacy in % is determined. 100% means that all the spider mites have been killed; 0% means that no spider mites have been killed.

Series [2] is described as follows: log P determination by HPLC on reversed-phase columns (C 18), analogous to OECD Guideline 117. It counts as physicochemical. The conditions noted are these: for logP[a]: method [a]; for logP[b]: method [b]; for chromatographic logP: reversed-phase HPLC column (C 18). As for the experimental part: The log P values were determined analogously to OECD Guideline 117 (EC Directive 92/69/EEC) by HPLC (high-performance liquid chromatography) using reversed-phase columns (C 18), by the following methods: [a] The LC-MS determination in the acidic range was effected at pH 2.7 with 0.1% aqueous formic acid and acetonitrile (contains 0.1% formic acid) as eluents; linear gradient from 10% acetonitrile to 95% acetonitrile. log P[a] is also referred to as log P(HCOOH). [b] LC-MS determination in the neutral range was effected at pH 7.8 with 0.001 molar aqueous ammonium hydrogencarbonate solution and acetonitrile as eluents; linear gradient from 10% acetonitrile to 95% acetonitrile. log P[b] is also referred to as log P(neutral). Calibration is effected with solutions of a homologous series of unbranched alkan-2-ones (having 3 to 16 carbon atoms) with known log P values (log P values determined on the basis of the retention times by linear interpolation between two successive alkanones).

Where [3] appears, read: pH 2.7, HPLC, acidic range, pH 2.7, 0.1% aqueous formic acid and acetonitrile, read-out: log P(HCOOH).
The mark [4] stands for this setting: pH 2.7, method [a], read-out: logP[a].
The mark [5] stands for this setting: pH 7.8, HPLC, neutral range, pH 7.8, 0.001 molar aqueous ammonium hydrogencarbonate and acetonitrile, read-out: log P(neutral).
Setting [6] is: pH 7.8, method [b], read-out: logP[b].
[7] abbreviates: pH 2.7, Table 3, HPLC, acidic range, pH 2.7, read-out: logP[a].
[8] abbreviates: pH 7.8, Table 3, HPLC, neutral range, pH 7.8, read-out: logP[b].

Structures are written as SMILES. Like-named read-outs stand apart in the source and are kept apart here.

In the case of `O=C(NC1CC1)N1CC(=O)N(c2cc([S+]([O-])CC(F)(F)F)c(Cl)cc2Cl)C1=O` (racemic) [compound 112], in series [1], the “efficacy (spider mites killed)” value amounted to 100%. In series [2], the “logP[a]” value is given as 2.61 and the “logP[b]” value turned out to be 2.65.
The corresponding values for `CC(C)CNC(=O)N1CC(=O)N(c2cc([S+]([O-])CC(F)(F)F)c(Cl)cc2Cl)C1=O` (racemic) [compound 113] are 100%, 3.21 and 3.28.
In the same order, the values of `O=C(NCC(F)(F)F)N1CC(=O)N(c2cc([S+]([O-])CC(F)(F)F)c(Cl)cc2Cl)C1=O` (racemic) [compound 114] are 100%, 2.88 and 2.91.
Take `O=C(NCc1ccccc1)N1CC(=O)N(c2cc([S+]([O-])CC(F)(F)F)c(Cl)cc2Cl)C1=O` (racemic) [compound 115]: the “efficacy (spider mites killed)” value in series [1] is on record as 100%. Moreover, in series [2], the “logP[a]” value is 3.23 and the “logP[b]” value came to 3.29.
In the case of `O=C(Nc1ccc(F)cc1)N1CC(=O)N(c2cc([S+]([O-])CC(F)(F)F)c(Cl)cc2Cl)C1=O` (racemic) [compound 116], the “efficacy (spider mites killed)” value in series [1] is 100%. Moreover, in series [2], the “logP[a]” value came out at 3.39 and the “logP[b]” value stood at 3.46.
In the same order, the values of `O=C(Nc1cccc(Cl)c1)N1CC(=O)N(c2cc([S+]([O-])CC(F)(F)F)c(Cl)cc2Cl)C1=O` (racemic) [compound 117] are 100%, 3.81 and 3.89.
In the same order, the values of `O=C(Nc1cccc(C(F)(F)F)c1)N1CC(=O)N(c2cc([S+]([O-])CC(F)(F)F)c(Cl)cc2Cl)C1=O` (racemic) [compound 120] are 100%, 3.92 and 4.02.
`Cc1cc(F)c(N2C(=O)CN(C(=O)NC3CC3)C2=O)cc1[S+]([O-])CC(F)(F)F` (stereo not drawn) [Ex. No. 3, N-Cyclopropyl-3-[2-fluoro-4-methyl-5-(2,2,2-trifluoroethylsulphinyl)phenyl]-2,4-dioxoimidazolidine-1-carboxamide]: the pest or weed control at 500 g/ha in series [1] is 100%. The chromatographic logP in series [2] (setting [3]) came to 2.15; in series [2] (setting [4]), 2.15; in series [2] (setting [5]), 2.12; in series [2] (setting [6]) it was 2.12.
In the case of `Cc1cc(F)c(N2C(=O)CN(C(=O)NC3CC3)C2=S)cc1[S+]([O-])CC(F)(F)F` (stereo not drawn) [Ex. No. 4, N-Cyclopropyl-3-[2-fluoro-4-methyl-5-(2,2,2-trifluoroethylsulphinyl)phenyl]-4-oxo-2-thioxoimidazolidine-1-carboxamide], the pest or weed control at 500 g/ha in series [1] was determined as 100%. The chromatographic logP amounted to 2.64 in series [2] (setting [3]), 2.64 in series [2] (setting [4]), 2.65 in series [2] (setting [5]) and 2.65 in series [2] (setting [6]).
As for `Cc1cc(F)c(N2C(=O)CN(C(=O)NCC(C)C)C2=O)cc1SCC(F)(F)F` [Ex. No. 12, 3-[2-Fluoro-4-methyl-5-(2,2,2-trifluoroethylsulphanyl)phenyl]-N-isobutyl-2,4-dioxoimidazolidine-1-carboxamide], the pest or weed control at 500 g/ha in series [1] was 100%. Besides, the chromatographic logP in series [2] (setting [3]) worked out at 3.67; in series [2] (setting [4]) it was 3.67; in series [2] (setting [5]), 3.58; in series [2] (setting [6]) it was 3.58.
For the compound `Cc1cc(F)c(N2C(=O)CN(C(=O)NCC(C)C)C2=S)cc1[S+]([O-])CC(F)(F)F` (stereo not drawn) [Ex. No. 13], in series [1], the “efficacy (spider mites killed)” value is given as 90%. In series [2], the “logP[a]” value is 3.33 and the “logP[b]” value turned out to be 3.24.
Take `CCNC(=O)N1C(=O)N(c2cc(SCC(F)(F)F)c(C)cc2F)C(=O)C1C` (stereo not drawn) [Ex. No. 24, N-Ethyl-3-[2-fluoro-4-methyl-5-(2,2,2-trifluoroethylsulphanyl)phenyl]-5-methyl-2,4-dioxoimidazolidine-1-carboxamide]: the pest or weed control at 500 g/ha in series [1] is 100%. In addition, the chromatographic logP in series [2] (setting [3]) was determined as 3.38; in series [2] (setting [4]), 3.38; in series [2] (setting [5]) it was 3.3; in series [2] (setting [6]), 3.3.
As for `Cc1cc(F)c(N2C(=O)N(C(=O)NC3CC3)C(C)(C)C2=O)cc1SCC(F)(F)F` [Ex. No. 74, N-Cyclopropyl-3-[2-fluoro-4-methyl-5-(2,2,2-trifluoroethylsulphanyl)phenyl]-5,5-dimethyl-2,4-dioxoimidazolidine-1-carboxamide], in series [1], the pest or weed control at 500 g/ha was 100%. In addition, the chromatographic logP in series [2] (setting [3]) stood at 3.76; in series [2] (setting [4]) it was 3.76; in series [2] (setting [5]), 3.72; in series [2] (setting [6]) it was 3.72.
Consider `Cc1cc(F)c(N2C(=O)N(C(=O)NC3CC3)C(C)(C)C2=O)cc1[S+]([O-])CC(F)(F)F` (stereo not drawn) [Ex. No. 84, N-Cyclopropyl-3-[2-fluoro-4-methyl-5-(2,2,2-trifluoroethylsulphinyl)phenyl]-5,5-dimethyl-2,4-dioxoimidazolidine-1-carboxamide], for which the pest or weed control at 500 g/ha in series [1] came out at 100%. Besides, the chromatographic logP in series [2] (setting [3]), in series [2] (setting [4]), in series [2] (setting [5]) and in series [2] (setting [6]) was 2.73 each time.
Turning to `Cc1cc(F)c(N2C(=O)CNC2=O)cc1SCC(F)(F)F` [IIa-1], the pest or weed control at 500 g/ha in series [1] was 90%. Besides, the chromatographic logP in series [2] (setting [3]) came to 2.11; in series [2] (setting [7]) it was 2.11; in series [2] (setting [5]), 2.08; in series [2] (setting [8]), 2.08.
Consider `Cc1cc(F)c(N2C(=O)CNC2=S)cc1SCC(F)(F)F` [IIa-2, 3-[2-Fluoro-4-methyl-5-(2,2,2-trifluoroethylsulphanyl)phenyl]-2-thioxoimidazolidin-4-one], for which, in series [1], the pest or weed control at 500 g/ha was determined as 100%. Besides, the chromatographic logP in series [2] (setting [3]) worked out at 2.53; in series [2] (setting [7]), 2.53; in series [2] (setting [5]), 2.5; in series [2] (setting [8]) it was 2.5.
Regarding `Cc1cc(F)c(N2C(=O)CNC2=O)cc1[S+]([O-])CC(F)(F)F` (stereo not drawn) [IIb-1], the pest or weed control at 500 g/ha in series [1] was determined as 100%. The chromatographic logP in series [2] (setting [3]) turned out to be 1.33; in series [2] (setting [7]) it was 1.33; in series [2] (setting [5]), 1.31; in series [2] (setting [8]), 1.31.
For the compound `Cc1cc(F)c(N2C(=O)CN(C(=O)NC(C)C)C2=S)cc1[S+]([O-])CC(F)(F)F` (stereo not drawn) [compound 14], in series [1], the “efficacy (spider mites killed)” value is 100%. For the same compound, in series [2], the “logP[a]” value was 3.01 and the “logP[b]” value turned out to be 2.93.
The corresponding values for `Cc1cc(F)c(N2C(=O)CN(C(=O)Nc3ccccc3)C2=O)cc1SCC(F)(F)F` [compound 16] are 100%, 3.82 and 3.71.
In the same order, the values of `Cc1cc(F)c(N2C(=O)CN(C(=O)NCc3ccccc3)C2=O)cc1SCC(F)(F)F` [compound 18] are 90%, 3.64 and 3.53.
In the case of `Cc1cc(F)c(N2C(=O)CN(C(=O)Nc3ccccc3)C2=O)cc1[S+]([O-])CC(F)(F)F` (stereo not drawn) [compound 19], the “efficacy (spider mites killed)” value in series [1] is 90%. Further, in series [2], the “logP[a]” value is given as 2.89 and the “logP[b]” value is 2.83.
The corresponding values for `Cc1cc(C)c(N2C(=O)CN(C(=O)NC(C)C)C2=O)cc1SCC(F)(F)F` [compound 22] are 100%, 3.48 and 3.38.
The corresponding values for `Cc1cc(F)c(N2C(=O)C(C)N(C(=O)NC3CC3)C2=O)cc1SCC(F)(F)F` (stereo not drawn) [compound 25] are 100%, 3.43 and 3.35.
In the same order, the values of `Cc1cc(F)c(N2C(=O)C(C)N(C(=O)NC(C)C)C2=O)cc1SCC(F)(F)F` (stereo not drawn) [compound 26] are 100%, 3.78 and 3.68.
For `CCNC(=O)N1CC(=O)N(c2cc(SCC(F)(F)F)c(C)cc2C)C1=O` [compound 31], the “efficacy (spider mites killed)” value in series [1] was found to be 90%. In addition, in series [2], the “logP[a]” value was determined as 3.14 and the “logP[b]” value worked out at 3.04.
The corresponding values for `CCNC(=O)N1CC(=O)N(c2cc([S+]([O-])CC(F)(F)F)c(C)cc2C)C1=O` (stereo not drawn) [compound 32] are 100%, 2.14 and 2.12.
